The source of these data is patent US20190054103A1, “METHOD OF TREATMENT OF TP53 WILD-TYPE TUMORS WITH 2',2'-DIFLUORO-5-AZA-2'-DEOXYCYTIDINE OR PRODRUGS THEREOF” (priority 2016, published 2019).

Series [1] relates to HL-60 (leukemia, TP null). To be noted: HL-60 nude mice.
Series [2] concerns TP53 WT colon cancer cell line Ls174T. Put plainly: CellTiter-Glo growth inhibition, Ls174T. It counts as cell-based. The conditions noted are these: 72-hour exposure, FIG. 1. The procedure: (§1) Two examples of additional comparisons are provided below for colon cancer cell lines (TP53 WT colon cancer cell line Ls174T and TP53 WT colon cancer cell line LoVo).
(§2) In these assays, two 96 well plates of each cell line were seeded with 5,000 cells per well in a total volume of […] per well and left incubating overnight. The following day, the cells were exposed to different concentrations of NUC013. At the end of a 72-hour exposure period, the plates were removed for CellTiter-Glo® assay. Luminescence was recorded on a Synergy 4.0.
For orientation: ATP-based viability assays read luminescence as a measure of living cells.

Series [3] concerns TP53 WT colon cancer cell line LoVo. Put plainly: CellTiter-Glo growth inhibition, LoVo. It counts as cell-based. The conditions noted are these: 72-hour exposure, FIG. 2. The procedure: as §1, §2
The next series concerns HeLa cells. Nature of the series: Nucleotide concentrations in HeLa cell extracts by HPLC (RNR inhibition). To be noted: 50 μM, 16 h incubation. Format: cell-based. From the text:
The more common approach is to synthesize a nucleoside diphosphate and then determine whether it inhibits RNR or p53R2. […] Nucleic Acids Research. […] The other approach is to expose cells in tissue culture to the drug and then attempt to determine whether deoxynucleotide synthesis is inhibited when compared to control cells. Measurement of deoxynucleotides may be done by radioimmunoassay or by HPLC. The disadvantage of a radioimmunoassay is that it can only measure a single deoxynucleotide triphosphate (dNTP) at a time and typically requires a tritiated nucleotide, but it is the preferred method for measuring dCTP [Piall E M, Aherne G W, Marks V. The quantitative determination of 2′-deoxycytidine-5′ triphosphate in cell extracts by radioimmunoassay. Anal Biochem. 1986; 154(1):276-281 incorporated herein by reference in its entirety]. On the other hand, HPLC can measure multiple nucleotides without requiring radiolabeling, but has been noted to quantitate poorly dC nucleotides, possibly as an artifact of an influx of dCTP from the medium [Bianchi V, Pontis E, Reichard P. Changes of deoxyribonucleoside triphosphate pools induced by hydroxyurea and their relation to DNA synthesis. J Biol Chem. 1986; 261(34): 16037-16042 incorporated herein by reference in its entirety]. This approach was used to determine RNR inhibition by NUC013.
Briefly, HeLa cells ([…]) were grown in the presence or absence of drug, in this case gemcitabine or NUC013. At the end of a 16 h incubation, the medium was aspirated, cells monolayers washed twice with PBS, and used for nucleotide extraction. The nucleotides were extracted from cell monolayers by the addition of ice-cold 80% acetonitrile (ACN) for 1 h. The extracts were centrifuged to remove cellular debris and loaded on a SAX column (100 mg, Supelco) pre-conditioned with methanol, water and ACN. Once the sample was completely effused, the cartridge was washed with 3 ml 80% ACN and 3 ml water and eluted with 1M KCl. The eluent was filtered through a 0.45 μm filter membrane (Roth) and analyzed by HPLC. Peak identification of the different nucleoside mono-, di-, and triphosphates, was made from their characteristic UV absorption spectra and retention times compared with those of a mixture of standards run immediately before cell extracts. The area of individual peaks was measured using ChemStation software (Agilent).

The conditions of series [4]: in vivo.
For series [5], the system named is LoVo (colon cancer, TP WT). Nature of the series: Xenograft model, nude mice implanted with LoVo. To be noted: NUC041 treatment, 8 days following the end of treatment.
Series [6] can be described thus: Pharmacokinetics after SC administration of NUC041 in phospholipid gel depot to mice. To be noted: analyte in plasma following SC administration of NUC041 (100 mg/kg) to mice.

Regarding `Nc1ncn([C@H]2C[C@H](O)[C@@H](CO)O2)c(=O)n1` [Decitabine, 4-amino-1-((2R,4S,5R)-4-hydroxy-5-(hydroxymethyl)tetrahydrofuran-2-yl)-1,3,5-triazin-2(1I)-one], the “mice dead or moribund prior to the conclusion of the study” value in series [1] (5 mg/kg per day for three consecutive days a week for three weeks) is listed as “Four of ten”.

As for “4-amino-1-((2R,4R,5R)-3,3-difluoro-4- hydroxy-5- (hydroxymethyl)tetrahydrofuran-2- yl)pyrimidin-2(1I)-one hydrochloride [Gemcitabine, reference compound]”, the GI50 (usually the concentration giving 50% growth inhibition) in series [2] is over 50 µM. Besides, in series [3], the GI50 is over 50 µM. For the same compound, in the series on HeLa cells, the ADP is on record as 15,639, the ATP was 26,296, the CTP is listed as 1,297 and the GTP is 2,036. In addition, in the series with HeLa cells, the UTP is given as 4,801; the “dATP, peak area, AU” value turned out to be 0 AU; the “dGDP, peak area, AU” value came to 7.95 AU; the “dTDP, peak area, AU” value came out at 43.4 AU. The “dUTP, peak area, AU” value in the series with HeLa cells came out at 5.3 AU.

Consider `C[Si](C)(C)OC[C@H]1O[C@@H](n2cnc(N)nc2=O)C(F)(F)[C@@H]1O[Si](C)(C)C` [NUC041, 4-amino-1-((2R,4R,5R)-3,3-difluoro-4-(trimethylsilyloxy)-5-((trimethylsilyloxy)methyl)tetrahydrofuran-2-yl)-1,3,5-triazin-2(1H)-one], for which the “hazard ratio (HR) vs saline control” value in series [1] (31 mg/kg intravenously, oil in water emulsion) was 0.51. In series [4], the “pharmacokinetic advantage over NUC013” value was “did not demonstrate a pharmacokinetic advantage over NUC013”. In addition, in series [5], the “tumor weights less than saline controls” value was 26.6%. In addition, in series [6], the “AUClast (area under the plasma concentration versus time curve from 0 to last quantifiable sampling time)” value was determined as 20.0 ng·h/mL.
